Tested on: melanocytes
Assay: Proliferation inhibitory test against melanocyte caused by ultraviolet irradiation
Assay type: cell-based
Details: cultured melanocytes, compound at 1 μg/ml
Procedure: Proliferation Inhibitory Test Against Melanocyte Caused by Ultraviolet Irradiation
Melanocytes were cultured according to the authentic method, and the proliferation of melanocytes in the presence or absence of test drugs under the ultraviolet irradiation was measured.

SMILES: O=C(Nc1cc(C(F)(F)F)cc(C(F)(F)F)c1)c1cc(Cl)ccc1O [Compound 50, N-[3,5-bis(trifluoromethyl)phenyl]-5-chloro-2-hydroxybenzamide]
- inhibition of transformation and proliferation of melanocyte under ultraviolet irradiation: almost completely inhibited

Reference: patent US20070042997A1, “Medicament for treatment of dermal pigmentation” (priority 2003, published 2007)
